Ends that are not written are not given here.
What was measured:
[1] = tested on: Her2 receptor positive SKBR-3 cancer cells; assay: In vitro cytotoxicity, MTT assay, 48 h, SKBR-3
Procedure: (§1) 68) to the antibody at the C-terminus by NRVRRS (SEQ. ID NO. 57) linker). Cytotoxicity was compared to a naked antibody (antibody without a lytic peptide) in Her-2 receptor positive cells (SKBR-3 and SKOV-3, human breast and ovarian cancer cells, respectively) and Her-2 receptor negative breast cancer cells (MDA-MB-231).
(§2) Cells were prepared in 96 well plates using 2,000 cells/well and were allowed to attach for 48 hours. […] All data were processed and analyzed using Graph Pad Prizm 4™ software (Graph Pad Prizm, Inc).

[2] = tested on: Her2 receptor positive SKOV-3 cancer cells; assay: In vitro cytotoxicity, MTT assay, 48 h, SKOV-3
Procedure: as §1, §2

[3] = tested on: Her2 receptor negative MDA-MB-231 cancer cells; assay: In vitro cytotoxicity, MTT assay, 48 h, MDA-MB-231
Procedure: as §1, §2

KFAKFAKKFAKFAKKFAK [Phor-18, KFAKFAK KFAKFAK KFAK]
very minimal non-specific cytotoxicity: cytotoxicity to SKBR-3 cells (in words) [1] | cytotoxicity to SKOV-3 cells (in words) [2] | cytotoxicity to MDA-MB-231 cells (in words) [3]

From patent US10729740B2, “Lytic-peptide-Her2/neu (Human Epidermal growth factor Receptor 2) ligand conjugates and methods of use” (Esperance Pharmaceuticals, Inc., priority 2010, dated 2020)
